SMILES	melting point
CNC(=O)Nc1c2c(nc3sccc13)CCCC2	253 to 255 °C
COc1ccc2c(=O)cc(C(OC)OC)oc2c1	99 to 101 °C
CC1(C)Cc2sccc2C1N (stereo not drawn)	80 °C
Cc1ccc([N+](=O)[O-])c(C(=O)Nc2ccc(-n3nc(C(F)(F)F)cc3C(F)(F)F)cc2)c1	188 to 189 °C
CCCCN(c1c([O-])[c+](N(CCCC)C2CC(C)(C)NC(C)(C)C2)[c+]1[O-])C1CC(C)(C)NC(C)(C)C1	151 to 152 °C
CCC[C@H]1CC[C@H]([C@H]2CC[C@H](c3ccc(C(C)=O)cc3)CC2)CC1	81 °C
CC(=O)NC1Cc2cc(CCN3CCN(c4nsc5ccccc45)CC3)ccc2C1(C)C (stereo not drawn)	58 to 68 °C
O=C1Nc2ccccc2SC1CCCl (stereo not drawn)	133 to 134 °C
Fc1ccc2c(C3CCN(CC4COc5ccccc5O4)CC3)noc2c1 (stereo not drawn)	86 to 87 °C
CC1(C)C(C=C(Cl)Cl)C1C(=O)O (stereo not drawn)	86 °C
CCCNC(=S)Nc1sccc1C(=O)OC	123 to 126 °C
CCCCNc1c(N)c(NCC(C)C)nc(C)c1C(=O)OCC	34 to 36 °C
N#CC1=Cc2ccccc2C(N2CCN(N)CC2)c2ccccc21 (stereo not drawn)	137 to 146 °C
C[C@@H](N1CCN(C(=O)c2ccc(F)cc2F)CC1)[C@](O)(Cn1cncn1)c1ccc(F)cc1F	63 to 65 °C
CNC(=O)Oc1ccc2c(ccn2NCCCc2ccncc2F)c1	165 to 166 °C
CN(Cc1ccc(Cl)cc1)S(=O)(=O)c1cn(S(=O)(=O)N(C)C)c(C#N)n1	162 to 163 °C
CC(=O)NC[C@H]1CN(c2ccc(N3CCC(n4cc(CO)nn4)CC3)c(F)c2)C(=O)O1	160 to 162 °C
CCn1nc(C(F)(F)F)cc1NC(=O)c1c(C)cccc1C(=O)NC(C)C	223 to 226 °C
COc1ccc(-c2cnc3nccn3c2)cc1OC1CC2CCC1C2 (stereo not drawn)	130 °C
COc1ccc(Cc2sccc2OC2OC(CO)C(O)C(O)C2O)cc1 (stereo not drawn)	154 to 155 °C
Cc1c(C(F)(F)F)cc(Cl)c(-n2cnc(C(F)(F)F)cc2=O)c1Cl	204 to 206 °C

SMILES	melting point
CC(=O)C1(Nc2ccccc2)CCN(C(C)C)CC1	107 °C
CCCC1Cc2cc(OCC(=O)O)c(Cl)c(Cl)c2C1=O (stereo not drawn)	199 to 203 °C
N#Cc1ccc([C@H]2CC[C@H](CI)CC2)cc1	127 °C
CCCc1nc2c(N)nc3cccnc3c2n1CC1(O)CC1	199 to 200 °C
Cc1cc(Cl)cc(CO)c1	32 to 34.5 °C
COC(=O)c1cc2cc(C)ccc2nn1	170 to 172 °C
FC(F)(F)c1cnc(Cc2ccc(Cl)cc2)c(Cl)c1	54 to 56 °C
COC(=O)c1c(N)cccc1[N+](=O)[O-]	105 to 107 °C
CC(=O)NC(NC(=O)CC(=O)OCc1ccccc1)C(=O)NCc1ccccc1 (stereo not drawn)	177 to 179 °C
Cc1c(N)cc(C)c2c(=O)[nH]ccc12	242 °C
COc1cc(C(C)=O)c(OC)c2c1C(C)(C)CCC2(C)C	97 °C
COc1cc2nc(Cl)nc(N)c2c(OC)c1OC	138 to 140 °C
NC(N)=NC(=O)c1ccc2c(c1)S(=O)(=O)CC2O (stereo not drawn)	240 to 241 °C
CN1Cc2c(C(=O)OCC3CC3)ncn2-c2ccc(F)cc2C1=O	156 to 157 °C
CON(C)C(=O)c1ocnc1C	59 to 60 °C
Cn1cnc([N+](=O)[O-])c1Oc1ccccc1	116 to 118 °C
CCN(Cc1cc(Br)ccc1OCC1CC1)c1ccc(C(=O)O)nn1	73 to 80 °C
S=C(NCc1ccccc1)Nc1ccc(NC(=S)NCc2ccccc2)cc1	198 °C
CNc1cccc(F)c1C#N	130 to 132 °C
CC1(c2ccc(F)cc2)OC(C=Cc2ccsc2)=CC1=O (stereo not drawn)	97 to 98 °C
OC(c1ccc(Cl)cc1)(c1ccc(Cl)cc1)c1nccn1Cc1ccc(Cl)cc1	171 to 173 °C

SMILES	melting point
Cc1c(C(=O)O)cnn1-c1nc(-c2cc(C(F)(F)F)cc(C(F)(F)F)c2)cs1	261 °C
CC(C)Nc1cccnc1N1CCN(C(=O)c2cc3cc(NC(=O)N4CCN(C)CC4)ccc3[nH]2)CC1	200 °C
O=C(O)c1cn([C@@H]2C[C@@H]2F)c2cc(N3C[C@@H]4NCCO[C@H]4C3)c(F)cc2c1=O	> 250 °C
C[C@@H]1CCC[C@H](C)N1Cc1ccc2cc(NC(=O)N3CCC(c4ccc(Cl)cc4)CC3)ccc2c1	199 to 200 °C
NC(=O)CCNc1ccc([N+](=O)[O-])cc1OCCO	184 °C
O=C1CCCCc2sccc2N1CCCCN1CCN(c2ncccn2)CC1	108 to 112 °C
Oc1c(CCc2ccccc2)cnc2c(-c3cc(-c4ccccc4)cs3)cnn12	278 to 285 °C
Cc1ncsc1C(O)c1ccc(Cl)cc1 (stereo not drawn)	134 °C
CCC(O)c1cc2c(cc1C)OCO2 (stereo not drawn)	71 to 72 °C
Nc1ccc(OCC2CCN(c3ccncc3)CC2)cc1	207 to 209 °C
CCOC(=O)c1cnn2c(-c3ccc(C)c(C)c3)ccnc12	187 to 188 °C
NNC1=Nc2ccc(Cl)cc2C(c2ccccc2F)S(=O)(=O)CC1 (stereo not drawn)	159 °C
Fc1ccccc1C1=NCc2cncn2-c2ccc(Cl)cc21	148 to 151 °C
CCCCc1ccc(C(=O)Cc2ccc(Br)cc2)cc1	129 to 131 °C
C=C1C(O)C(CO)OC1n1cc(CC)c(N)nc1=O (stereo not drawn)	194 to 196 °C
OCc1cnoc1-c1ccc(Br)cc1	104 to 105 °C
COc1cc(OC)c(C23CC4CC(CC(C4)C2)C3)cc1C=O	152 to 154 °C
Nc1nc(N2CCC2)c2nc[nH]c2n1	280 °C
CC(C)c1cccc(NC(=O)[C@H](Br)C(C)C)c1O	108 to 109 °C

Now from value to molecule:

melting point	SMILES
170 to 173 °C	COc1cccc(S(=O)(=O)c2ccc3[nH]c(C)c(CCNC(=O)OC(C)(C)C)c3c2)c1
201 to 205 °C	COc1ccc(S(=O)(=O)Nc2c(Cl)cccc2Cl)c2c1[nH]c1ccccc12
252 to 255 °C	Cn1cc(S(C)=O)c(=O)c2sc(-c3ccccc3)cc21 (stereo not drawn)
223 °C	Cc1ccc(C2(c3ccccc3)OCc3c2cnc(C)c3OCC(=O)O)cc1 (stereo not drawn)
102 to 103 °C	Cn1c2c(ccc1=O)C(NCCc1ccc(Cl)cc1Cl)CCC2 (stereo not drawn)
246 °C	N#Cc1c(N2CCN(C(=O)c3cccs3)CC2)c2cc(F)ccc2n(Cc2ccccc2)c1=O
120 to 121 °C	C/C(=C\CC1OC(=O)NC1=O)c1cccc(OCc2nc(-c3ccc(OCC(F)(F)F)cc3)oc2C)c1 (stereo not drawn)
128 to 132 °C	COc1cc(NC(C)=O)c2c3c(c4ccccc4nc13)C=CN2
213 to 216 °C	CS(=O)(=O)c1ccc(-c2cnn(-c3ccc(S(N)(=O)=O)cc3)c(=O)c2-c2ccc(F)cc2)cc1
160 to 163 °C	CCN(CC)c1ccc(/C=C/C(=O)CC(=O)/C=C/c2ccc3cc[nH]c3c2)c(OCc2ccccc2)c1
102 to 104 °C	COc1ccc2c(c1)CCC1C2CCC2(C)C(NCc3ccccc3)CCC12 (stereo not drawn)
216 to 220 °C	COc1cccc(Cn2c(=O)[nH]c3cc(Cl)cc(Cl)c3c2=O)c1
103 to 105 °C	Cc1nc2nc(SCc3ccccc3)nn2c(Cl)c1Cl
168 to 171 °C	CC(=O)Oc1ccc(/C=C2/Sc3nc(Nc4ccc(N5CCN(C)CC5)cc4)ncc3NC2=O)cc1
186 to 187 °C	O=C(O)C1Cc2cc(-c3ccccc3)ccc2O1 (stereo not drawn)
145 to 147 °C	Cc1cn2ccc3c(c2n1)NC(c1ccccc1)C(OC(=O)C(C)(C)C)C3=O (stereo not drawn)
173 to 176 °C	COc1ccc(/C=C/C(=O)CC(=O)/C=C/c2ccc(O)c(F)c2)cc1O
228 to 230 °C	COc1ccc(C(=O)Nc2ccc(F)c(F)c2)cc1NS(=O)(=O)c1ccc(C#N)cc1
51 to 54 °C	COc1cccc(C(=O)Cl)c1OC(C)=O
123 to 125 °C	CCC(=O)Oc1cc(C(C)C)ccc1C1(OC(=O)CC)C(=O)c2ccccc2C1=O
274 to 275 °C	S=C1Nc2ccc(Cl)cc2Nc2ccccc21

melting point	SMILES
78 to 79 °C	CC(=O)Oc1c(C(=O)c2ccccc2Cl)c(C)nn1C
76 to 77.5 °C	COc1ccc(/C=C/c2ccccn2)cc1OC1CCCC1
235 to 237 °C	Cc1ccc(S(=O)(=O)Nc2cc(C(=O)O)c3c(c2)C(C(=O)O)CC(c2ccccc2)N3)cc1 (stereo not drawn)
195 °C	N#CC(Nc1ccccc1[N+](=O)[O-])c1c(Cl)cccc1Cl (stereo not drawn)
147 to 151 °C	O=C(Cc1cc(C(=O)c2ccc(I)c([N+](=O)[O-])c2)sc1-c1ccccc1)NO
138 to 140 °C	CCCCn1cnc2c(Oc3cccc(OC)c3)nc(Nc3ccc(F)cc3)nc21
280 °C	O=C1c2ccccc2-c2cc(O)cc3ccc(O)c1c23
157 to 160 °C	CCCOc1ccc(S(=O)(=O)NCc2ccncc2)cc1-c1nc2cc(N)c([N+](=O)[O-])cc2c(=O)[nH]1
198 to 200 °C	CCOC(=O)NN=C(c1ccc(Cl)cc1)c1ccc(NS(C)(=O)=O)cc1
180 to 182 °C	O=c1[nH]c2ccc(OCCCCN3CCC(c4cccc(Cl)c4Cl)CC3)cc2[nH]1
165 to 167 °C	CCCc1ccc2c(c1CCC(=O)O)CCC(NS(=O)(=O)c1ccc(Cl)cc1)C2 (stereo not drawn)
156 to 157 °C	CC(C)(C)OC(=O)CC1(O)CCc2c([nH]c3ccccc23)C1=O (stereo not drawn)
174 to 175 °C	CCCC(=O)Nc1ccc(-c2ccncc2)cc1
210 to 214 °C	CCCc1cn2ccccc2c1C(=O)c1ccc(O)cc1
172 °C	CC=CC(C)=C1C(=O)OC(=O)C1c1cc(C)n(-c2ccccc2)c1C (stereo not drawn)
250 to 255 °C	O=C(CCNc1c(C(=O)O)[nH]c2cc(Cl)ccc12)c1ccccc1
154 to 156 °C	CCCN(c1cccc(-c2ccnc3c([N+](=O)[O-])cnn23)c1)S(=O)(=O)c1ccccc1
117 to 118 °C	COc1ccc(C(=O)c2ccncc2)cc1OC
58 °C	COc1ccc(S(=O)(=O)C(C)(Cc2ccccc2)C(=O)NO)cc1 (stereo not drawn)
193 to 195 °C	Cn1c(=O)c(-c2ccc(Cl)cc2Cl)cc2c3cc(-c4csc(COC(=O)C(C)(C)C)n4)ccc3n(C)c21
179 to 181 °C	Cc1ccc(CC2CCN(C(=O)C(=O)Nc3ccc(NS(C)(=O)=O)cc3)CC2)cc1

— a melting point compilation (Tetko et al.; mined from patent text by program, amines drawn as free bases though some values may be those of a salt)
